These results are taken from patent EP0960190B1, “IMI[…] RESISTANT SUGAR BEET PLANTS” (Michigan State University, priority 1996, dated 1998).

For assay [1], the system named is Sir-13. The experiment in a line: Whole plant sugarbeet response to postemergence ALS-inhibiting herbicides. The assay is classed as in vivo, Beta vulgaris L. To be noted: Sir-13 whole plant, postemergence, relative to Rel-1.
Assay [2] relates to 93R30B. The description is as above. It counts as in vivo, Beta vulgaris L. To be noted: for R/S: 93R30B (SB) whole plant, postemergence, relative to Rel-1.
For assay [3], the system named is Sur. The description is as above. The assay is classed as in vivo, Beta vulgaris L. The conditions noted are these: Sur whole plant, postemergence, relative to Rel-1.
Assay [4] relates to Rel-1. Described as above. The assay is classed as in vivo, Beta vulgaris L. The conditions noted are these: Rel-1 whole plant, herbicide applied postemergence.
Assay [5] has as its system EL-49. The experiment in a line: Shoot culture herbicide resistance (shoot injury and fresh weight on M20 media). The assay is classed as cell-based, Beta vulgaris L. To be noted: EL-49; for IC50: herbicide concentration causing 50% injury to the shoot culture, 3 weeks, read-out: I50; for R/S: ratio of resistant to sensitive control (Rel-1) I50 values, shoot culture, 30240 min. How it is done: (§1) In step 7, shoot cultures were assessed for herbicide resistance by placing three small, consistently sized shoot cuttings on each plate of M20 media supplemented with logarithmically increasing concentrations of imidazolinone herbicide, sulfonylurea or triazolopyrimidine sulfonanilide ranging from 1 nM to 0.1 mM. 93R30 culture responses were compared to that of shoot cultures of a sensitive control (Rel-1) and a chlorsulfuron resistant, imidazolinone sensitive control (EL-49). Shoot cultures were maintained at 20 µE/m^2 s light intensity at 25°C for 3 weeks. Shoot culture was determined by rating shoot injury and fresh weight 3 weeks after transfer to selective media. Magnitude of herbicide resistance was determined by the ratio of resistant to sensitive I50 values (the herbicide concentration causing 50 percent injury).

Assay [6] deals with 93R30B. Described as above. The conditions noted are these: for R/S / IC50: 93R30B; for R/S: ratio of resistant to sensitive control (Rel-1) I50 values, shoot culture; for R/S / level of resistance: 30240 min; for IC50: herbicide concentration causing 50% injury to the shoot culture, 3 weeks, read-out: I50; for level of resistance: 93R30B in shoot culture. The assay is classed as cell-based, Beta vulgaris L. How it is done: as §1

The test system of assay [7] is Rel-1. Described as above. It counts as cell-based, Beta vulgaris L. The conditions noted are these: Rel-1 sensitive control, herbicide concentration causing 50% injury to the shoot culture, 3 weeks, read-out: I50. How it is done: as §1
For assay [8], the system named is ALS enzyme from Sir-13. The experiment in a line: ALS enzyme activity assay in leaf extracts (acetoin colorimetry). It counts as biochemical, Beta vulgaris L. The conditions noted are these: Sir-13 single mutant ALS enzyme in vitro.
For assay [9], the system named is ALS enzyme from Sur. The description is as above. The conditions noted are these: Sur single mutant ALS enzyme in vitro. The assay is classed as biochemical, Beta vulgaris L. How it is done: Standard procedures were utilized to partially purify ALS from rapidly expanding leaves of greenhouse-grown sugar beet plants (Hart, et al. Weed Science 40:378-383 (1992)). Extracts from heterozygous 93R30B F1 plants and Rel-1 S1 seed were assayed for ALS activity in the presence of logarithmically increasing concentrations of imazethapyr. ALS activity was determined from leaf extracts of REL-1 and 93R30B sugarbeet lines. Plants were grown in the greenhouse as described above to the four to six leaf stage. ALS activity from fresh extracts was determined in the presence of imazethapyr and chlorsulfuron at logarithmically increasing concentrations. […]
(§2) ALS activity is measured by adding 0.2 ml of enzyme preparation (diluted 3:1 with resuspension buffer) to 1.3 ml of reaction buffer (25 mM K2HPO4, pH 7.0, 0.625 mM MgCl2, 25 mM sodium pyruvate, 0.625 mM thiamine pyrophosphate, 1.25 µM flavin adenine dinucleotide) and incubated at 35°C for 1 hour. […]
Purchased acetoin was used as a standard for the colorimetric reaction. Acetoin concentrations were determined by measuring the absorption of the reaction solution at 530 nm. […] Protein concentrations of the extracts was determined by the method of Bradford (Anal. Biochem. 72:248-254 (1976)) using bovine serum albumin for the standard curve.

Assay [10] has as its system ALS extracts from 93R30B. The description is as above. To be noted: SB double mutant ALS enzyme in vitro. The assay is classed as biochemical, Beta vulgaris L. How it is done:
Standard procedures were utilized to partially purify ALS from rapidly expanding leaves of greenhouse-grown sugar beet plants (Hart, et al. Weed Science 40:378-383 (1992)). Extracts from heterozygous 93R30B F1 plants and Rel-1 S1 seed were assayed for ALS activity in the presence of logarithmically increasing concentrations of imazethapyr. ALS activity was determined from leaf extracts of REL-1 and 93R30B sugarbeet lines. Plants were grown in the greenhouse as described above to the four to six leaf stage. ALS activity from fresh extracts was determined in the presence of imazethapyr and chlorsulfuron at logarithmically increasing concentrations. The methods and procedures used were modified from those outlined by Ray (Plant Physiol. 75:827-831 (1984)) and Shaner, et al. (Plant Physiol. 76:545-546 (1984)). Ten g of sugarbeet leaves were homogenized in 40 ml cold homogenization buffer (0.1 M K2HPO4, pH 7.5, 1 mM sodium pyruvate, 0.5 mM MgCl2, 0.5 mM thiamine pyrophosphate, 10 µM of flavin adenine dinucleotide, 10% by vol glycerol) plus 2.5 g polyvinylpolypyrolidone. The homogenate was filtered through eight layers of cheesecloth and centrifuged at 27,000 g for 20 minutes. The supernatant was removed and brought to 50% saturation with (NH4)2SO4. […]
as §2
Purchased acetoin was used as a standard for the colorimetric reaction. Acetoin concentrations were determined by measuring the absorption of the reaction solution at 530 nm. […] Protein concentrations of the extracts was determined by the method of Bradford (Anal. Biochem. 72:248-254 (1976)) using bovine serum albumin for the standard curve. […]

Read-outs that look alike come from different tables or passages of the source.

Regarding `COCc1cnc(C2=NC(C)(C(C)C)C(=O)N2)c(C(=O)O)c1` (centres unmarked) [AC299,263], the R/S in assay [1] was 130 X; in assay [2], above 250 X; in assay [3], 4 X; in [5], 3X; in [6], 1400X. Further, the I50 in assay [4] is given as 1.1 g ha^-1. Moreover, the IC50 in assay [5] (Beta vulgaris, 504 h) is 70 nM; in assay [6] (Beta vulgaris, 504 h), 40000 nM; in assay [7] (Beta vulgaris, 504 h), 30 nM.

Take `COc1nc(C)nc(NC(=O)NS(=O)(=O)c2ccccc2Cl)n1` [Chlorsulfuron]: the R/S in [1] is on record as 1 X; in assay [2], 20 X; in [3], above 1000 X; in assay [3] (listed as chlorsulfuron), above 1000 X; in [5], 10000X; in assay [6], 10000X. Also, in assay [2] (SB double mutant compared with Sur single mutant, whole plant), the “reduction of whole plant resistance of the SB double mutant” value was “more than 50 fold”. The same compound came in with an I50 in assay [4] of 0.07 g ha^-1. For the same compound, the IC50 in assay [5] (Beta vulgaris, 504 h) worked out at 25000 nM; in [6] (Beta vulgaris, 504 h), 25000 nM; in [7] (Beta vulgaris, 504 h), 2.5 nM. Moreover, the level of resistance in assay [6] was 10,000 fold.

Take `Cc1ccn2nc(S(=O)(=O)Nc3c(F)cccc3F)nc2n1` [Flumetsulam]: the figures for the “resistance of the ALS enzyme” value in assay [8], in [9] and in assay [10] were 3 X, 50 X and 200 X, respectively. The IC50 was found to be 1100 nM in assay [5] (Beta vulgaris, 504 h); 1700 nM in [6] (Beta vulgaris, 504 h); 28 nM in assay [7] (Beta vulgaris, 504 h). The R/S in assay [5] was 40X; in assay [6], 60X. This compound yielded a level of resistance in assay [6] of 60 fold.

As to `CC(C)C1(C)N=C(c2nc3ccccc3cc2C(=O)O)NC1=O` (centres unmarked) [Imazaquin], the IC50 in assay [5] (Beta vulgaris, 504 h) turned out to be 40 nM; in assay [6] (Beta vulgaris, 504 h), 16000 nM; in assay [7] (Beta vulgaris, 504 h), 40 nM. The R/S in assay [5] was 1X; in assay [6], 400X.

On to `Cc1cc(C)nc(NC(=O)NS(=O)(=O)c2ccccc2C(=O)O)n1` [Sulfometuron], for which the results for the R/S in assay [1], in assay [2] and in assay [3] were 1 X, 4X and 23 X, respectively. The compound also registered an I50 in [4] of 0.2 g ha^-1.

Turning to Imazamethabenzmethyl, the IC50 in assay [5] was 20000 nM; in assay [6] it was above 100000 nM; in assay [7], 800 nM. The R/S was 25X in assay [5] and above 125X in [6].
